Test results reported in article PMC5012625 (International Journal of Nanomedicine, 2016).

Key:
[1] = Pharmacokinetic study in rats; format: in vivo; settings: female, Sprague Dawley, rat, plasma
[2] = Particle size and surface charge by dynamic light scattering; format: physicochemical; settings: dynamic light scattering analyzer, Nano ZS, mean ± SD

Compound	AUC(0-inf) ([1]; 0.1 mg kg^−1) [ng·h/mL]	AUC(0-t) ([1]; 0.1 mg kg^−1) [ng·h/mL]	Cmax ([1]; 0.1 mg kg^−1) [ng/mL]	Tmax ([1]; 0.1 mg kg^−1) [min]	F rel ([1]; 0.1 mg/kg) [%]	AUC(0-inf) ([1]; sc, 0.02 mg kg^−1) [ng·h/mL]	AUC(0-t) ([1]; sc, 0.02 mg kg^−1) [ng·h/mL]	Cmax ([1]; sc, 0.02 mg kg^−1) [ng/mL]	Tmax ([1]; sc, 0.02 mg kg^−1) [min]	Zeta potential [2]
CC[C@H](C)[C@H](NC(=O)[C@H](CCC(=O)O)NC(=O)[C@H](CO)NC(=O)[C@@H](NC(=O)[C@@H](N)CO)C(C)C)C(=O)N[C@@H](CCC(N)=O)C(=O)N[C@@H](CC(C)C)C(=O)N[C@@H](CCSC)C(=O)N[C@@H](Cc1cnc[nH]1)C(=O)N[C@@H](CC(N)=O)C(=O)N[C@@H](CC(C)C)C(=O)NCC(=O)N[C@@H](CCCCN)C(=O)N[C@@H](Cc1cnc[nH]1)C(=O)N[C@@H](CC(C)C)C(=O)N[C@@H](CC(N)=O)C(=O)N[C@@H](CO)C(=O)N[C@@H](CCSC)C(=O)N[C@@H](CCC(=O)O)C(=O)N[C@@H](CCCN=C(N)N)C(=O)N[C@H](C(=O)N[C@@H](CCC(=O)O)C(=O)N[C@@H](Cc1c[nH]c2ccccc12)C(=O)N[C@@H](CC(C)C)C(=O)N[C@@H](CCCN=C(N)N)C(=O)N[C@@H](CCCCN)C(=O)N[C@@H](CCCCN)C(=O)N[C@@H](CC(C)C)C(=O)N[C@@H](CCC(N)=O)C(=O)N[C@@H](CC(=O)O)C(=O)N[C@H](C(=O)N[C@@H](Cc1cnc[nH]1)C(=O)N[C@@H](CC(N)=O)C(=O)N[C@@H](Cc1ccccc1)C(=O)O)C(C)C)C(C)C [rhPTH (1-34)]	0.0448	0.0309	0.0392 ± 0.0198	30	1.06 ± 0.85	0.603	0.585	0.711 ± 0.0978	15	
lysine-linked deoxycholic acid [LysDOCA]										6.27±1.29
